Legend:
[1] = tested on: Hist.; experiment: Antispasmodic activity, Hist.
[2] = tested on: Ac.chol.; experiment: Antispasmodic activity, Ac.chol.
[3] = tested on: BaCl2; experiment: Antispasmodic activity, BaCl2
[4] = tested on: guinea pig atria's; experiment: Protective activity against anoxia (guinea pig atria); design: key: scale: + = 10 to 20% increase in survival time; details: increase in survival time
Text: (5) guinea pig atria's;
+ = increase in survival time of 10 to 20%

[5] = tested on: cholesterol biosynthesis; experiment: Inhibition of cholesterol biosynthesis in vitro (rat liver); type: cell-based; details: Rattus norvegicus, AA, rat liver, mean, read-out: Inhibition of incorporation of 1-^14 C-acetate (AA)
Text: |Inhibition of cholesterol biosynthesis in vitro (rat liver). In- |hibitory effect of suloctidil and clofibrate on the incorpora- |tion of 1-^14 [NT] and 2-^14 C-mevalonate (MVA). |are mean values and range, expressed in % of inhibition. Unless |otherwise stated, n = 3.

[6] = DL50 mouse p.o.; details: in vivo, po, limits of reliability (p : 0.95) in brackets
Text: (1) the limits of reliability (p : 0.95) are given in brackets.

[7] = tested on: spontaneously hypertensive rat; experiment: Antihypertensive activity (spontaneously hypertensive rat); type: in vivo; details: 15 mg/kg per os
Experimental: (3) spontaneously hypertensive rat; 15 mg/kg per os;
± reduction of systolic pressure up to 10 mm of Hg
+ reduction of systolic pressure of 10 to 20 mm Hg
++ reduction of systolic pressure of at least 20 mm of Hg

Question: With “1-(4-methylthiophenyl)-2-n-octylaminopropanol [No 11]” as the compound, how does the “Antispasmodic activity CE 100, Hist.” value [1] read?
Answer: Its value is 1000 μ g γ 60 ml.

Question: And the “Antispasmodic activity CE 100, Ac.chol.” value [2]?
Answer: Its value is 1000 μ g γ 60 ml.

Question: And the “Antispasmodic activity CE 100, BaCl2” value [3]?
Answer: The value was greater than 1000 μ g γ 60 ml.

Question: What about the “Protective activity against anoxia” value [4] of the same compound?
Answer: The value was 0.

Question: With `CCOC(=O)C(C)(C)Oc1ccc(Cl)cc1` [Clofibrate, reference compound] as the compound, how does the inhibition at 100 µM ([5]; 10^-4 M) read?
Answer: Its inhibition at 100 µM is 47.4%.

Question: And the inhibition at 10 µM ([5]; 10^-5 M)?
Answer: The inhibition at 10 µM was 4.2%.

Question: For `CCCCNC(C)C(O)c1ccc(SC(C)C)cc1` (centres unmarked) [No 1], which LD50 [6] is on record?
Answer: Its LD50 is 680 mg/kg.

Question: What about the “Antispasmodic activity CE 100, Hist.” value [1] of the same compound?
Answer: The value was 500 μ g γ 60 ml.

Question: And the “Antispasmodic activity CE 100, Ac.chol.” value [2]?
Answer: The value was 1000 μ g γ 60 ml.

Question: And the “Antispasmodic activity CE 100, BaCl2” value [3]?
Answer: Its value is 500 μ g γ 60 ml.

Question: And the “Protective activity against anoxia” value [4]?
Answer: The value was 0.

Question: With `CC(C)NC(C)C(O)c1ccc(SC(C)C)cc1` (centres unmarked) [No 3] as the compound, how does the LD50 [6] read?
Answer: The LD50 was 630 mg/kg.

Question: Which LD50 [6] does the source give for `CCC(C)NC(C)C(O)c1ccc(SC(C)C)cc1` (centres unmarked) [No 4] here?
Answer: The LD50 was 520 mg/kg.

Question: And the “Antispasmodic activity CE 100, Hist.” value [1]?
Answer: The value was 1000 μ g γ 60 ml.

Question: And the “Antispasmodic activity CE 100, Ac.chol.” value [2]?
Answer: The value was 1000 μ g γ 60 ml.

Question: What about the “Antispasmodic activity CE 100, BaCl2” value [3] of the same compound?
Answer: The value was 500 μ g γ 60 ml.

Question: And the “Protective activity against anoxia” value [4]?
Answer: The value was 0.

Question: With `CC(C)Sc1ccc(C(O)C(C)NC(C)(C)C)cc1` (centres unmarked) [No 5] as the compound, how does the “Antispasmodic activity CE 100, Hist.” value [1] read?
Answer: Its value is greater than 1000 μ g γ 60 ml.

Question: What about the “Antispasmodic activity CE 100, Ac.chol.” value [2] of the same compound?
Answer: Its value is 1000 μ g γ 60 ml.

Question: And the “Antispasmodic activity CE 100, BaCl2” value [3]?
Answer: The value was 1000 μ g γ 60 ml.

Question: What about the “Protective activity against anoxia” value [4] of the same compound?
Answer: Its value is 0.

Question: With `CCCCNC(CC)C(O)c1ccc(SC(C)C)cc1` (centres unmarked) [No 6] as the compound, how does the LD50 [6] read?
Answer: The LD50 was greater than 1000 mg/kg.

Question: And the “Antispasmodic activity CE 100, Hist.” value [1]?
Answer: The value was 500 μ g γ 60 ml.

Question: What about the “Antispasmodic activity CE 100, Ac.chol.” value [2] of the same compound?
Answer: The value was 100 μ g γ 60 ml.

Question: What about the “Antispasmodic activity CE 100, BaCl2” value [3] of the same compound?
Answer: The value was 1000 μ g γ 60 ml.

Question: What about the “Protective activity against anoxia” value [4] of the same compound?
Answer: Its value is 0.

Question: For `CCC(NC(C)C)C(O)c1ccc(SC(C)C)cc1` (centres unmarked) [No 7], which “Antispasmodic activity CE 100, Hist.” value [1] is on record?
Answer: Its value is 1000 μ g γ 60 ml.

Question: And the “Antispasmodic activity CE 100, Ac.chol.” value [2]?
Answer: The value was 200 μ g γ 60 ml.

Question: What about the “Antispasmodic activity CE 100, BaCl2” value [3] of the same compound?
Answer: The value was 1000 μ g γ 60 ml.

Question: And the “Protective activity against anoxia” value [4]?
Answer: Its value is 0.

Question: For `CCCCCCCCNC(CC)C(O)c1ccc(SC(C)C)cc1` (centres unmarked) [No 8], which LD50 [6] is on record?
Answer: The LD50 was greater than 4000 mg/kg.

Question: And the Anti-hypertensive activity [7]?
Answer: Its Anti-hypertensive activity is 0.

Question: And the “Antispasmodic activity CE 100, Hist.” value [1]?
Answer: The value was 500 μ g γ 60 ml.

Question: What about the “Antispasmodic activity CE 100, Ac.chol.” value [2] of the same compound?
Answer: The value was 500 μ g γ 60 ml.

Question: And the “Antispasmodic activity CE 100, BaCl2” value [3]?
Answer: Its value is 100 μ g γ 60 ml.

Question: What about the “Protective activity against anoxia” value [4] of the same compound?
Answer: Its value is 0.

Question: Which “Antispasmodic activity CE 100, Hist.” value [1] does the source give for `CCC(C)NC(CC)C(O)c1ccc(SC(C)C)cc1` (centres unmarked) [No 9] here?
Answer: The value was 1000 μ g γ 60 ml.

Question: And the “Antispasmodic activity CE 100, Ac.chol.” value [2]?
Answer: The value was 200 μ g γ 60 ml.

Question: What about the “Antispasmodic activity CE 100, BaCl2” value [3] of the same compound?
Answer: The value was 500 μ g γ 60 ml.

Question: What about the “Protective activity against anoxia” value [4] of the same compound?
Answer: Its value is “++ (increase in survival time of more than 25%)”.

Question: Which results are given for `CCCCNC(C)C(O)c1ccc(SC)cc1` (centres unmarked) [No 10]?
Answer: LD50 [6]: ~100 mg/kg; Anti-hypertensive activity [7]: 0; Antispasmodic activity CE 100, Hist. [1]: 1000 μ g γ 60 ml; Antispasmodic activity CE 100, Ac.chol. [2]: 500 μ g γ 60 ml; Antispasmodic activity CE 100, BaCl2 [3]: 1000 μ g γ 60 ml; Protective activity against anoxia [4]: + (increase in survival time of 10 to 20%)

Question: What does the source list for `CCCCCCCCNC(C)C(O)c1ccc(SC)cc1` (centres unmarked) [No 11]?
Answer: LD50 [6]: 970 mg/kg; Anti-hypertensive activity [7]: ++ (reduction of systolic pressure of at least 20 mm of Hg); Antispasmodic activity CE 100, Hist. [1]: 200 μ g γ 60 ml; Antispasmodic activity CE 100, Ac.chol. [2]: 200 μ g γ 60 ml; Antispasmodic activity CE 100, BaCl2 [3]: 100 μ g γ 60 ml; Protective activity against anoxia [4]: 0

Question: Which LD50 [6] does the source give for `CCCCNC(C)C(O)c1ccc(SCC)cc1` (centres unmarked) [No 12] here?
Answer: The LD50 was 312 mg/kg.

Question: And the “Antispasmodic activity CE 100, Hist.” value [1]?
Answer: Its value is 1000 μ g γ 60 ml.

Question: And the “Antispasmodic activity CE 100, Ac.chol.” value [2]?
Answer: Its value is 500 μ g γ 60 ml.

Question: What about the “Antispasmodic activity CE 100, BaCl2” value [3] of the same compound?
Answer: Its value is 1000 μ g γ 60 ml.

Question: What about the “Protective activity against anoxia” value [4] of the same compound?
Answer: The value was 0.

Question: For `CCCCCCCCNC(C)C(O)c1ccc(SCC)cc1` (centres unmarked) [No 13], which LD50 [6] is on record?
Answer: The LD50 was 1750 mg/kg.

Question: What about the Anti-hypertensive activity [7] of the same compound?
Answer: Its Anti-hypertensive activity is “++ (reduction of systolic pressure of at least 20 mm of Hg)”.

Question: And the “Antispasmodic activity CE 100, Hist.” value [1]?
Answer: Its value is 100 μ g γ 60 ml.

Question: What about the “Antispasmodic activity CE 100, Ac.chol.” value [2] of the same compound?
Answer: The value was 200 μ g γ 60 ml.

Question: What about the “Antispasmodic activity CE 100, BaCl2” value [3] of the same compound?
Answer: The value was 100 μ g γ 60 ml.

Question: What about the “Protective activity against anoxia” value [4] of the same compound?
Answer: Its value is 0.

Question: With `CCCCNC(C)C(O)c1ccc(SC2CCCCC2)cc1` (centres unmarked) [No 14] as the compound, how does the “Antispasmodic activity CE 100, Hist.” value [1] read?
Answer: The value was 500 μ g γ 60 ml.

Question: And the “Antispasmodic activity CE 100, Ac.chol.” value [2]?
Answer: Its value is 100 μ g γ 60 ml.

Question: What about the “Antispasmodic activity CE 100, BaCl2” value [3] of the same compound?
Answer: Its value is 200 μ g γ 60 ml.

Question: For `CCCCCCCCNC(C)C(O)c1ccc(SC2CCCCC2)cc1` (centres unmarked) [No 15], which LD50 [6] is on record?
Answer: Its LD50 is roughly 5000 mg/kg.

Question: What about the Anti-hypertensive activity [7] of the same compound?
Answer: Its Anti-hypertensive activity is “++ (reduction of systolic pressure of at least 20 mm of Hg)”.

Question: And the “Antispasmodic activity CE 100, Hist.” value [1]?
Answer: The value was 1000 μ g γ 60 ml.

Question: And the “Antispasmodic activity CE 100, Ac.chol.” value [2]?
Answer: Its value is 500 μ g γ 60 ml.

Question: And the “Antispasmodic activity CE 100, BaCl2” value [3]?
Answer: The value was 1000 μ g γ 60 ml.

Question: Which “Antispasmodic activity CE 100, Hist.” value [1] does the source give for `CCC(C)NC(C)C(O)c1ccc(SC2CCCCC2)cc1` (centres unmarked) [No 16] here?
Answer: Its value is 500 μ g γ 60 ml.

Question: And the “Antispasmodic activity CE 100, Ac.chol.” value [2]?
Answer: The value was 200 μ g γ 60 ml.

Question: And the “Antispasmodic activity CE 100, BaCl2” value [3]?
Answer: The value was 200 μ g γ 60 ml.
